# Entries after “also recorded” stand apart in the source; their conditions may differ.
# Legend:
# rat glucagon receptor = target: T1, rat glucagon receptor (Rattus norvegicus, UniProt P30082); experiment: cAMP accumulation, CHO-K1 cells over-expressing the rat glucagon receptor; format: cell-based; conditions: rat glucagon receptor vs rat GLP-1 receptor
# T1 construct: host or cells: CHO-K1
# Experimental: (§1) For cAMP studies, cells were seeded at a density of 150000 cells/ml in a 48 well plate (Nunc, VWR International Inc., Chicago, USA) and incubated for 24 h. Cells were serum starved for 1 h and then incubated for 30 mins at room temperature with a range of peptide concentrations diluted in serum free DMEM (Sigma–Aldrich, Dorset, UK) in the presence of 1 mM IBMX (3-isobutyl-1-methylxanthine, Sigma–Aldrich). […] EC50’s were calculated using Prism v5 (GraphPad Software Inc., San Diego, CA, USA). Concentrations were applied in duplicate or triplicate per experiment and each experiment repeated a minimum of 3 times.
# (§2) All food and bodyweight data are presented as mean ± SEM. […] Differences in 0–7 days cumulative food intake and bodyweight data were analysed using one way ANOVA and post hoc tests with Dunnett’s or Bonferroni corrections for multiple comparisons (Prism v5, GraphPad Software Inc. San Diego, CA, USA). cAMP EC50’s were calculated using a sigmoidal dose response curve and non-linear regression (Prism v5). […] In all cases P < 0.05 was considered statistically significant.
# [1] = design: method as in earlier work; conditions: native oxyntomodulin and longer lasting dual analogues; rodents ref [6],[9],[10],[23],[26],[31]; humans ref [36],[37]; cited from earlier work
# Text: Additionally, methods of peptide administration differ: some studies infused peptides while others administer ...
# [2] = rodents and humans; ref [7],[19],[34],[36],[37]; cited from earlier work
# [3] = cited from earlier work
# human GLP-1 receptor = conditions: compared to native peptides; ref [22],[23],[32]; cited from earlier work
# human glucagon receptor = conditions: compared to native peptides; ref [22],[23],[32]; cited from earlier work
# rat GLP-1 receptor = target: T2, rat GLP-1 receptor (Rattus norvegicus, UniProt P32301); experiment: cAMP accumulation, CHL cells over-expressing the rat GLP-1 receptor; format: cell-based; conditions: analogue average EC50/average GLP-1 EC50; below 1 enhanced efficacy, above 1 decreased efficacy vs native peptide
# T2 construct: host or cells: CHL (Chinese hamster lung)
# T2 sequence (P32301 22-463): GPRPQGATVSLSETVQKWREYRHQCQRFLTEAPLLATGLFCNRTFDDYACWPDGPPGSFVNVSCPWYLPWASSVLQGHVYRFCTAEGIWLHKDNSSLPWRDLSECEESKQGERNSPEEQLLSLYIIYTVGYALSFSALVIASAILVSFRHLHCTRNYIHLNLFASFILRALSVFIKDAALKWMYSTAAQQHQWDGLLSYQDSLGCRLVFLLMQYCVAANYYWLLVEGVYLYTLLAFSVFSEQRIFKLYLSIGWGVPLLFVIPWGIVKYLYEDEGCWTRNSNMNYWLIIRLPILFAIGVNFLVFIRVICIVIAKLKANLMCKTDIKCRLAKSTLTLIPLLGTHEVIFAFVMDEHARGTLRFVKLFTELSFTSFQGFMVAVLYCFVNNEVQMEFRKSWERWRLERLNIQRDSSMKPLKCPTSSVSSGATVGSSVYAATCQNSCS
# Experimental: as §1, §2
# T1 sequence (P30082 27-485): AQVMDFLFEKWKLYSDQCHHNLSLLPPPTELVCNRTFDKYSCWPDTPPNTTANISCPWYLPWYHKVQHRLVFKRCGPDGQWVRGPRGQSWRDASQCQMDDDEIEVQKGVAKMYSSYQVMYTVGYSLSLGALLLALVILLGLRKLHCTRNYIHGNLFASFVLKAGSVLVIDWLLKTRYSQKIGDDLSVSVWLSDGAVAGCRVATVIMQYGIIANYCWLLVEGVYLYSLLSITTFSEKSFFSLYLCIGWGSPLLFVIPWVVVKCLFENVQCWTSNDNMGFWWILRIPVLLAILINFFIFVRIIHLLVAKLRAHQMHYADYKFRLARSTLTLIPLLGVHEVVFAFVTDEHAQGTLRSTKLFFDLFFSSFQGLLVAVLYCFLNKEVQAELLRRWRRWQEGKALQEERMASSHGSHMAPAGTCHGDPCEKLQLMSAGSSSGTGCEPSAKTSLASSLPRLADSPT
substance,measurement,setting,value
oxyntomodulin [OXM],preference between rat glucagon and GLP-1 receptors,rat glucagon receptor,greater efficacy at the glucagon receptor than the GLP1 receptor; also recorded: favoured glucagon receptor activity
same,food intake after repeated peripheral administration,[1],reduction in food intake
same,energy expenditure,[2],increase energy expenditure
same,weight loss,"[3]; peripheral administration, rodents ref [1],[5],[6],[25], humans ref [4],[36],[37]",causes weight loss
same,activation of human GLP-1 receptor,human GLP-1 receptor,reduced efficacy compared to the native peptides
same,activation of human glucagon receptor,human glucagon receptor,reduced efficacy compared to the native peptides
Exendin-4,weight loss in standard chow fed animals,"[3]; ref [33],[38]",weight loss
GLP-1(7-36NH2),"EC50 ratio to native peptide, Rat GLP-1r",rat GLP-1 receptor,1.0 arbitrary units

# From paper PMC4645461 (Peptides, 2015)
